pIC50: −log10 of the molar value.
How the values were obtained:
AXL = molecular target: T1, AXL (Homo sapiens, UniProt P30530); experiment: TR-FRET kinase activity assay, AXL; type: biochemical; conditions: ATP at Km, 60 minutes
T1 sequence (P30530 26-894): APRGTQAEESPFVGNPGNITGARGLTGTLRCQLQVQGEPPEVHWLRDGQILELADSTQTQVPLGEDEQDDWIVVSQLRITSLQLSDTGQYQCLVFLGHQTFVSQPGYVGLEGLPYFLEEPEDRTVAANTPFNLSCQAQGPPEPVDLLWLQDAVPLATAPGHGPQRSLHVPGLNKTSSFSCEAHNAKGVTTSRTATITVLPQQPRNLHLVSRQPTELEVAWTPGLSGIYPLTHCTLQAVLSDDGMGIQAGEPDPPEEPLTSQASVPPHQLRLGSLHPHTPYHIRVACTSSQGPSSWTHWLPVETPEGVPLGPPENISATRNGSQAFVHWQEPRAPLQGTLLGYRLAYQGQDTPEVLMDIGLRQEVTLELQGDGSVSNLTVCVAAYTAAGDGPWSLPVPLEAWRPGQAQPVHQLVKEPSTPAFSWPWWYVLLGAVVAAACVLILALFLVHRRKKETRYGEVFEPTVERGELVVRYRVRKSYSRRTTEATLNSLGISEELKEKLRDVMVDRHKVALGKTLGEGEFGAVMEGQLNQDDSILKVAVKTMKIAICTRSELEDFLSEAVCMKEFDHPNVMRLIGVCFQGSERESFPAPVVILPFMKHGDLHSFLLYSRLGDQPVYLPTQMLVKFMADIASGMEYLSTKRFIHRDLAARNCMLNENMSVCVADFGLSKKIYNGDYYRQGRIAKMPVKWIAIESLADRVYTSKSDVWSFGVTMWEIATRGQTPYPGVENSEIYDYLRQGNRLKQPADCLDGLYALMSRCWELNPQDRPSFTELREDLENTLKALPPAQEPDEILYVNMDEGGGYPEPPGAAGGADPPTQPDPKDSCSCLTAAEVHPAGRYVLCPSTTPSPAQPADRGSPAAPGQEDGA
Description: (§1) IC50 values for compound inhibition of AXL, FLT3, MERTK and TYRO3 activity were determined by using a TR-FRET activity assay. A polypeptide substrate with a fluorescent label is phosphorylated on a tyrosine by each enzyme, where the now phosphorylated product is bound by a Europium-labeled antibody specific to that phosphorylation site. The proximity between the antibody and the substrate gives a signal known as TR-FRET. As the enzyme is inhibited by compound, less phosphorylated peptide product is made causing a decrease in overall signal.
(§2) Activity assays were performed in a 384-well, small volume, black microplates in an active enzyme volume of 10 μL and final developed volume of 20 μL. Final assay conditions are 50 mM HEPES pH 7.5, 10 mM MgCl2, 1 mM EGTA, 0.01% Brij 35 and 1 mM DTT all at RT. Enzyme, substrate labeled peptide and compound are mixed, and then the reaction is initiated with the addition of ATP at Km concentration for each enzyme. The reaction is allowed to run 60 minutes and then quenched with a 12.5 mM EDTA (ethylenediamine tetraacetic acid) solution. The plate is then developed with the addition of Europium labeled antibody for a final volume of 20 μL and is then incubated for 30 minutes in darkness. Plates are read in a Pherastar plate reader. Data is analyzed in GraphPad PRISM.
(§3) The results of these assays are shown in Table 1, below, wherein “No.” designates compound number (FIG. 1); “A” represents a value of ≤100 nM; “B” a value of >100 nM and ≤1 μM; “C” a value of >1 μM and ≤10 μM; “D” a value of >10 μM; “ND” is not determined. The ratio of Mer to FLT3 is calculated as follows: FLT3 IC50/Mer IC50. “+” represents a ratio of >2.0 and <10; “++” represents a ratio of between 10 and 100; and “+++” represents a ratio of >100.

TYRO3 = molecular target: T2, TYRO3 (Homo sapiens, UniProt Q06418); experiment: TR-FRET kinase activity assay, TYRO3; type: biochemical; conditions: ATP at Km, 60 minutes
T2 sequence (Q06418 41-890): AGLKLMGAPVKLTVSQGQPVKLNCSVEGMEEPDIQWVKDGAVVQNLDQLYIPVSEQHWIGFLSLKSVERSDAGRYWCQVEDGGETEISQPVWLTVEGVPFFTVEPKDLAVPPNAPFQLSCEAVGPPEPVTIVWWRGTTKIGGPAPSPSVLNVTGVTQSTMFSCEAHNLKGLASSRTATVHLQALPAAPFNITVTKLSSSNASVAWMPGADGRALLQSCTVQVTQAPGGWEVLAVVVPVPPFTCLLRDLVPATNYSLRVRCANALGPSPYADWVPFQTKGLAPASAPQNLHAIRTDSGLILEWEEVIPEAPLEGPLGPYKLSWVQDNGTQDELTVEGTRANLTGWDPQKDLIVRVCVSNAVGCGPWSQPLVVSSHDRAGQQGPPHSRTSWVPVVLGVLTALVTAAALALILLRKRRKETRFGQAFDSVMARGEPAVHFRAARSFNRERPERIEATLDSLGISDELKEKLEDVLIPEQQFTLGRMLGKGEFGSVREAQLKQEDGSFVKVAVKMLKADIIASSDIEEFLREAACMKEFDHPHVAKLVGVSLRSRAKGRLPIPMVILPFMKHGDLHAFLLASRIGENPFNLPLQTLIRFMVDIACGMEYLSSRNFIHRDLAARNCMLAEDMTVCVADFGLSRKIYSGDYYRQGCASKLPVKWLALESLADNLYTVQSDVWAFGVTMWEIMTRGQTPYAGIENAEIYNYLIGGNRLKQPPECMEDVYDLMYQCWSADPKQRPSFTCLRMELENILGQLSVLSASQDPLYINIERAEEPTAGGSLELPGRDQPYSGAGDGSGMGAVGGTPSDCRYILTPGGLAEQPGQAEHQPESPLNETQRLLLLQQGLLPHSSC
Description: as §1, §2, §3

Row | SMILES | pIC50 (AXL) | pIC50 (TYRO3)
1 | COC[C@H](C)Nc1ncc2c(-c3ccc(C(=O)NC(C)C)nc3)cc([C@H]3CC[C@H](O)CC3)n2n1 [Compound 228, 5-(7-((1r,4S)-4-hydroxycyclohexyl)-2-(((S)-1-methoxypropan-2-yl)amino)pyrrolo[2,1-f][1,2,4]triazin-5-yl)-N-isopropylpicolinamide] | 6.00 to 7.00 | ≥ 7.00
2 | COC[C@H](C)Nc1ncc2c(-c3ccc4c(c3)NC(=O)C4)cc([C@H]3CC[C@H](O)CC3)n2n1 [Compound 249] | ≥ 7.00 | ≥ 7.00
3 | Cc1cc(-c2cc([C@H]3CC[C@H](O)CC3)n3nc(N[C@@H](C)COC(C)C)ncc23)ccn1 [Compound 215] | 6.00 to 7.00 | ≥ 7.00
4 | Cc1cc(-c2cc([C@H]3CC[C@H](O)CC3)n3nc(N[C@@H](C)CC(F)(F)F)ncc23)cnn1 [Compound 268] | 6.00 to 7.00 | ≥ 7.00
5 | CCCCC[C@H](C)Nc1ncc2c(-c3ccc(CN4CCN(C)CC4)cc3)cc([C@H]3CC[C@H](O)CC3)n2n1 [Compound 104] | ≥ 7.00 | ≥ 7.00
6 | C[C@@H](CC1CC1)Nc1ncc2c(-c3ccc(CN4CCN(C)CC4)cc3)cc([C@H]3CC[C@H](O)CC3)n2n1 [Compound 216] | ≥ 7.00 | ≥ 7.00
7 | CCCCCC(C)Nc1ncc2c(C3=CCC(C(=O)N4CCOCC4)CC3)cc(C3CCC(O)CC3)n2n1 (mixture of isomers) [Compound 110] | ≥ 7.00 | ≥ 7.00

The next lines start with the values.

Row | pIC50 (AXL) | pIC50 (TYRO3) | SMILES
8 | 5.00 to 6.00 | ≥ 7.00 | C[C@H](Nc1ncc2c(-c3ccc(CN4CCOCC4)cc3)cc([C@H]3CC[C@H](O)CC3)n2n1)[C@@H]1CCCO1 [Compound 205]
9 | ≥ 7.00 | ≥ 7.00 | COC[C@H](C)Nc1ncc2c(-c3ccc(C)nc3)cc([C@H]3CC[C@H](O)CC3)n2n1 [Compound 246]
10 | 6.00 to 7.00 | ≥ 7.00 | CNC(=O)c1cncc(-c2cc([C@H]3CC[C@H](O)CC3)n3nc(N[C@@H](C)COC)ncc23)c1 [Compound 245]
11 | 6.00 to 7.00 | ≥ 7.00 | COC[C@H](C)Nc1ncc2c(-c3cnn(CC(=O)N(C)C)c3)cc([C@H]3CC[C@H](O)CC3)n2n1 [Compound 238]
12 | ≥ 7.00 | ≥ 7.00 | COCC(C)Nc1ncc2c(-c3cccc(CN4CCC(F)C4)c3)cc(C3CCC(O)CC3)n2n1 (stereo not shown) [Compound 225]
13 | 6.00 to 7.00 | ≥ 7.00 | COC[C@H](C)Nc1ncc2c(-c3cncc(C(N)=O)c3)cc([C@H]3CC[C@H](O)CC3)n2n1 [Compound 247]
14 | 6.00 to 7.00 | ≥ 7.00 | COC[C@H](C)Nc1ncc2c(-c3cnc(C)o3)cc([C@H]3CC[C@H](O)CC3)n2n1 [Compound 261]
15 | ≥ 7.00 | ≥ 7.00 | COC[C@H](C)Nc1ncc2c(-c3cnn(CC4(C#N)CC4)c3)cc([C@H]3CC[C@H](O)CC3)n2n1 [Compound 266]
16 | 6.00 to 7.00 | ≥ 7.00 | COC[C@H](C)Nc1ncc2c(-c3cncc(CN4CCOCC4)c3)cc([C@H]3CC[C@H](O)CC3)n2n1 [Compound 219]
17 | 6.00 to 7.00 | ≥ 7.00 | COC[C@H](C)Nc1ncc2c(-c3ccc(C)cn3)cc([C@H]3CC[C@H](O)CC3)n2n1 [Compound 258]

— patent US11040981B2, “Pyrrolotriazine compounds and methods of inhibiting TAM kinases” (Syros Pharmaceuticals, Inc., priority 2017, dated 2021)
